Data from patent publication US5801254A, “Arteminolide derivatives and process for the manufacture thereof” (Korea Institute of Science and Technology, priority 1996, dated 1998).
Where two headings read alike, the source gives them in different places.

How the values were obtained:
[1] = test system: angiogenesis, chorioallantoic membrane (CAM); test: Angiogenesis suppressing activity, chorioallantoic membrane (CAM) assay; type: in vivo; conditions: fertilized chicken egg, read-out: IC50 values for Angiogenesis Suppression
Method: Angiogenesis was determined in accordance with the chorioallantoic membrane(CAM) assay method of Kusaka et al. described in Biochem. Biophy. Res. Comm., 174, 1070(1991) by using a fertilized chicken egg.
A fertilized chicken egg(Pulmuwon co., Korea) was incubated at 37°-38° C. and a humidity of more than 90%. Here, 0 day-embryo means that the fertilized egg had been storaged at 18° C. for no more than 3-4 days since laying.
The pointed end of the fertilized egg was scratched with a knife, laid horizontally, the scratched site was punctured with a 5 ml syringe and 2 ml of albumin was extracted from the fertilized egg. The puncture hole was then sealed with a glass-tape. The fertilized egg, laid such that the sealed hole is located at the bottom, was incubated under the same condition described above.
The other end of the fertilized egg where the air sac is located, i.e., the end opposite to the hole site was opened, a window having a diameter of 2-3 cm was installed therein, the window was sealed with a glass-tape, and the incubation was resumed.
At this time, a chorioalletoic membrane(CAM) of 2-5 mm diameter develop. A arteminolide sample was dissolved in distilled water or ethanol, 10 μl of the sample solution was dropped on quartered Thermanox coverslip(Nunc, Co.,) and dried in a clean bench. The sealing glass-tape was removed, the treated Thermanox coverslip obtained above was laid on the CAM and then sealed with a glass-tape. All tools used in the above procedure were pre-sterilized with 70% ethanol.
The sealing glass-tape was removed. 1 ml of Intralipose(fat emulsion, Green Cross co., Korea) was taken with syringe, removed an air bobble therefrom and injected into an area below the CAM.
Angiogenesis suppressing activity was then calculated in accordance with the following equation: [formula]

[2] = target: T1, farnesyl-protein transferase (FPTase) (Rattus norvegicus, UniProt Q02293+Q04631); test: Farnesyl-protein transferase inhibiting activity, scintillation proximity assay with 3H-FPP and biotin-lamin B peptide; type: biochemical; conditions: read-out: IC50 values for FPTase Inhibition
T1 construct: a cerebrum obtained from white rat; from tissue; host or cells: rat cerebrum (male Sprague-Dawley, 100-150 g), homogenate, partially purified on Q Sepharose Fast Flow
Method: First, a cerebrum obtained from white rat(male Spraguo Dowley 100-150 g) was washed with physiological saline solution and homogenized. The homogenized solution was centrifuged and partially purified by using Q sepharose fast flow column to obtain farnesyl protein transferase(FPTase).
10 μl of a sample, 40 μl of FPTase obtained above, 10 μl of an assay buffer(50 mM Tris-HCl, pH 7.5, 25 mM MgCl2, 2 mM KCl, 5 mM DTT, 5 mM Na2 HPO4, 0.01% Triton X-100), 20 μl of diluted ^3 H-FPP and 20 μl of biotin-lamin B peptide were mixed together and the resulting mixture was reacted at room temperature for 30 minutes. 150 μl of SPA bead/stop reagent solution was added to the mixture and the enzymatic activity was determined by examining the extent of biotin lamin B peptide farneslyation, expressed by a unit of count per minute(CPM), with a liquid scintillation counter.

Solubility = type: physicochemical
[3] = MeOH, acetone, chloroform, DMSO

SMILES	IC50 ([1]; listed as A) [µM]	IC50 [2] [µM]	IC50 ([1]; listed as F) [µM]	Solubility (Solubility; [3])	Solubility (Solubility; hexane, H2O)	IC50 ([1]; Gallus gallus) [µM]	IC50 ([1]; listed as C) [µM]	IC50 ([2]; listed as C) [µM]	IC50 ([1]; listed as E) [µM]	IC50 ([2]; listed as E) [µM]
C=C1C(=O)OC2C1CCC(C)(O)C13C=CC(C)(C21)C1(C3)C(=O)OC2C3C(C)=CC(=O)C3=C(C)CC(OC(=O)CC(C)C)C21 (stereo not drawn) [Arteminolide A]	5.4	0.38	–	–	–	–	–	–	–	–
C=C1C(=O)OC2C1CCC(C)(O)C13C=CC(C)(C21)C1(C3)C(=O)OC2C3C(C)=CC(=O)C3=C(C)CC(OC(=O)CC(C)C)C21 (stereo not drawn) [Arteminolide F]	–	160	24	soluble	insoluble	–	–	–	–	–
C=C1C(=O)OC2C1CCC(C)(O)C13C=CC(C)(C21)C1(C3)C(=O)OC2C3C(C)=CC(=O)C3=C(C)CC(OC(=O)C=C(C)C)C21 (stereo not drawn) [Arteminolide B]	–	0.4	–	soluble	insoluble	5.2	–	–	–	–
C=C1C(=O)OC2C1CCC(C)(O)C13C=CC(C)(C21)C1(C3)C(=O)OC2C3C(C)=CC(=O)C3=C(C)CC(OC(=O)/C(C)=C/C)C21 (stereo not drawn) [Arteminolide D]	–	0.63	–	soluble	insoluble	6.2	–	–	–	–
C=C1C(=O)OC2C1CCC(C)(O)C13C=CC(C)(C21)C1(C3)C(=O)OC2C3C(C)=CC(=O)C3=C(C)CC(OC(=O)/C(C)=C\C)C21 (stereo not drawn) [Arteminolide C]	–	–	–	soluble	insoluble	–	0.5	0.74	–	–
C=C1C(=O)OC2C1CCC(C)(O)C13C=CC(C)(C21)C1(C3)C(=O)OC2C3C(C)=CC(=O)C3=C(C)CC(OC(=O)/C(C)=C\C)C21 (stereo not drawn) [Arteminolide E]	–	–	–	–	insoluble	–	–	–	20	150
